Tested on: Phospholipidosis
Assay: Literature-mined public compounds from Kruhlak et al phospholipidosis modelling dataset

Compound | Phospholipidosis
CC(O)Cn1cnc2c1c(=O)n(C)c(=O)n2C (stereo not drawn) [PROXYPHYLLINE] | Negative: based on the absence of positive reported data from WMDD
NC(=O)C[S+]([O-])C(c1ccccc1)c1ccccc1 (stereo not drawn) [MODAFINIL] | Negative: based on the absence of positive reported data from WMDD
Cn1c(=O)c2c(ncn2C)n(C)c1=O [CAFFEINE] | Negative: confirmed by electron microscopy
O=C1CN(/N=C/c2ccc([N+](=O)[O-])o2)C(=O)N1 [NITROFURANTOIN] | Negative: based on the absence of positive reported data from WMDD
CCCC[C@@H]1CC(=O)[C@]2(O)O[C@@H]3[C@@H](NC)[C@@H](O)[C@@H](NC)[C@H](O)[C@H]3O[C@@H]2O1.O=S(=O)(O)O | Positive: strong inducer confirmed by electron microscopy
Nc1nc(N)c2nc(CNc3ccc(C(=O)N[C@@H](CCC(=O)O)C(=O)O)cc3)cnc2n1 [AMINOPTERIN] | Negative: based on the absence of positive reported data from WMDD
Oc1ccc2c(c1)[C@@]13CCCC[C@@]1(O)[C@@H](C2)N(CC1CCC1)CC3 [BUTORPHANOL] | Negative: based on the absence of positive reported data from WMDD
Cc1cc(=O)n(-c2ccccc2)n1C.OC(O)C(Cl)(Cl)Cl.OC(O)C(Cl)(Cl)Cl [DICHLORALPHENAZONE] | Negative: based on the absence of positive reported data from WMDD
COc1cc(NS(=O)(=O)c2ccc(N)cc2)nc(OC)n1 [SULFADIMETHOXINE] | Negative: based on the absence of positive reported data from WMDD
CO[C@H]1[C@@H](O)C[C@H](O[C@H]2[C@@H](O)C[C@H](O[C@H]3[C@@H](O)C[C@H](O[C@H]4CC[C@@]5(C)[C@H](CC[C@@H]6[C@@H]5C[C@@H](O)[C@]5(C)[C@@H](C7=CC(=O)OC7)CC[C@]65O)C4)O[C@@H]3C)O[C@@H]2C)O[C@@H]1C [METILDIGOXIN] | Negative: based on the absence of positive reported data from WMDD
CC(Oc1ccccc1)C(=O)N[C@@H]1C(=O)N2[C@@H]1SC(C)(C)[C@@H]2C(=O)O (stereo partly drawn) [PHENETHICILLIN] | Negative: based on the absence of positive reported data from WMDD
O=C(NC1CCN(CCc2c[nH]c3ccccc23)CC1)c1ccccc1 [INDORAMIN] | Positive: strong inducer confirmed by electron microscopy
CC(C)(CO)[C@@H](O)C(=O)NCCC(=O)O [PANTOTHENIC ACID] | Negative: based on the absence of positive reported data from WMDD
CN(C)CCC(c1ccccc1)c1ccccn1 (stereo not drawn) [PHENIRAMINE] | Negative: based on the absence of positive reported data from WMDD
Nc1ncnc2c1ncn2[C@@H]1O[C@H](CO)[C@@H](O)[C@H]1O [ADENOSINE] | Negative: based on the absence of positive reported data from WMDD
Cc1ccc(C(=O)C(C)CN2CCCCC2)cc1 (stereo not drawn) [TOLPERISONE] | Negative: based on the absence of positive reported data from WMDD
Cc1c(C)c2c(c(C)c1O)CCC(C)(COc1ccc(CC3SC(=O)NC3=O)cc1)O2 (stereo not drawn) [TROGLITAZONE] | Negative: based on the absence of positive reported data from WMDD
CC(=O)OC(C)C[N+](C)(C)C (stereo not drawn) [METHACHOLINE] | Negative: based on the absence of positive reported data from WMDD
Cc1cc2nc3c(=O)[nH]c(=O)nc-3n(C[C@H](O)[C@H](O)[C@H](O)CO)c2cc1C [RIBOFLAVIN] | Negative: based on the absence of positive reported data from WMDD
CC(C)NCC(O)c1ccc(NS(C)(=O)=O)cc1 (stereo not drawn) [SOTALOL] | Negative: confirmed by electron microscopy

Compound | Phospholipidosis
CC(=O)[C@]1(O)Cc2c(O)c3c(c(O)c2[C@@H](O[C@H]2C[C@H](N)[C@H](O)[C@H](C)O2)C1)C(=O)c1ccccc1C3=O [IDARUBICIN] | Negative: based on the absence of positive reported data from WMDD
Nc1cc(-c2ccncc2)c[nH]c1=O [INAMRINONE] | Negative: based on the absence of positive reported data from WMDD
Clc1ccc2nsnc2c1NC1=NCCN1 [TIZANIDINE] | Negative: based on the absence of positive reported data from WMDD
CCC1(c2ccc(N)cc2)CCC(=O)NC1=O (stereo not drawn) [AMINOGLUTETHIMIDE] | Negative: based on the absence of positive reported data from WMDD
CCN(CC)CCNC(=O)c1ccc(N)cc1 [PROCAINAMIDE] | Negative: confirmed by electron microscopy
CC1=C(/C=C/C(C)=C/C=C/C(C)=C/CO)C(C)(C)CCC1 [RETINOL] | Negative: based on the absence of positive reported data from WMDD
CCCC1C(=O)N2C(N(C)C)=Nc3ccc(C)cc3N2C1=O (stereo not drawn) [APAZONE] | Negative: based on the absence of positive reported data from WMDD
CCC(=O)O[C@H]1CC[C@H]2[C@@H]3CC[C@H]4CC(=O)[C@H](C)C[C@]4(C)[C@H]3CC[C@]12C [DROMOSTANOLONE PROPIONATE] | Negative: based on the absence of positive reported data from WMDD
Nc1nc2ncc(CNc3ccc(C(=O)N[C@@H](CCC(=O)O)C(=O)O)cc3)nc2c(=O)[nH]1 [FOLIC ACID] | Negative: based on the absence of positive reported data from WMDD
CN1CCC(=C2c3ccccc3CC(=O)c3sccc32)CC1 [KETOTIFEN] | Negative: based on the absence of positive reported data from WMDD
CC(C)NCC(O)COc1cccc2ccccc12 (stereo not drawn) [PROPRANOLOL] | Positive: weak inducer based on presence of foamy macrophages and cytoplasmic vacuolations
CNC(C)CCC=C(C)C (stereo not drawn) [ISOMETHEPTENE] | Negative: based on the absence of positive reported data from WMDD
C1CCC(C(CC2CCCCN2)C2CCCCC2)CC1 (stereo not drawn) [PERHEXILINE] | Positive: strong inducer confirmed by electron microscopy
IVERMECTIN | Negative: based on the absence of positive reported data from WMDD
CN1C(=O)CN=C(c2ccccc2)c2cc(Cl)ccc21 [DIAZEPAM] | Negative: confirmed by electron microscopy
Cc1ccsc1C(=CCCN1CCC[C@@H](C(=O)O)C1)c1sccc1C [TIAGABINE] | Negative: based on the absence of positive reported data from WMDD
NS(=O)(=O)c1cc2c(cc1C(F)(F)F)NC(Cc1ccccc1)NS2(=O)=O (stereo not drawn) [BENDROFLUMETHIAZIDE] | Negative: based on the absence of positive reported data from WMDD
CCCN(CCC)C(=O)C(CCC(=O)O)NC(=O)c1ccccc1 (stereo not drawn) [PROGLUMIDE] | Negative: based on the absence of positive reported data from WMDD
C=CC1=C(C)/C(=C/c2[nH]c(Cc3[nH]c(/C=C4\NC(=O)C(C)=C4C=C)c(C)c3CCC(=O)O)c(CCC(=O)O)c2C)NC1=O [BILIRUBIN] | Positive: strong inducer confirmed by electron microscopy
CCc1cc2c(s1)-n1c(C)nnc1CN=C2c1ccccc1Cl [ETIZOLAM] | Negative: based on the absence of positive reported data from WMDD

Compound | Phospholipidosis
Clc1ccc(C(c2ccccc2)N2CCNCC2)cc1 (stereo not drawn) [NORCHLORCYCLIZINE] | Positive: strong inducer confirmed by electron microscopy
CN1CCN(Cc2nc3cccc4c3c([n+]2[O-])-c2ccccc2-4)CC1 | Positive: weak inducer based on presence of foamy macrophages and cytoplasmic vacuolations
CC(=O)Nc1ccc(O)cc1 [ACETAMINOPHEN] | Negative: confirmed by electron microscopy
CN(Cc1cc(Br)cc(Br)c1N)C1CCCCC1 [BROMHEXINE] | Positive: weak inducer based on presence of foamy macrophages and cytoplasmic vacuolations
CCC[C@@H]1C[C@@H](C(=O)N[C@@H]([C@H]2O[C@H](SC)[C@H](O)[C@@H](O)[C@H]2O)[C@H](C)Cl)N(C)C1 [CLINDAMYCIN] | Positive: strong inducer confirmed by electron microscopy
NC[C@H]1O[C@H](O[C@H]2[C@H](O)[C@@H](O[C@H]3O[C@H](CO)[C@@H](O)[C@H](N)[C@H]3O)[C@H](N)C[C@@H]2N)[C@H](O)[C@@H](O)[C@@H]1O [KANAMYCIN A] | Negative: based on the absence of positive reported data from WMDD
CN(C)C/C=C(/c1ccc(Br)cc1)c1cccnc1 [ZIMELDINE] | Positive: strong inducer confirmed by electron microscopy
CCCC(=O)O[C@H]1[C@H](C)O[C@@H](O[C@H]2[C@H](N(C)C)[C@@H](O)[C@H](O[C@H]3[C@@H](CC=O)C[C@@H](C)[C@@H](O)/C=C/C=C/C[C@@H](C)OC(=O)C[C@@H](O)[C@@H]3OC)O[C@@H]2C)C[C@@]1(C)OC(=O)CC [ROKITAMYCIN] | Negative: based on the absence of positive reported data from WMDD
CC(=O)CC(c1ccccc1)c1c(O)c2ccccc2oc1=O (stereo not drawn) [WARFARIN] | Negative: based on the absence of positive reported data from WMDD
O=c1[nH]c(=S)[nH]cc1I [IODOTHIOURACIL] | Negative: based on the absence of positive reported data from WMDD
CC(C)(N)Cc1ccc(Cl)cc1 [CHLORPHENTERMINE] | Positive: strong inducer confirmed by electron microscopy
C[C@H]1[C@H]2Cc3ccc(O)cc3[C@]1(C)CCN2CC1CC1 [CYCLAZOCINE] | Negative: based on the absence of positive reported data from WMDD
Nc1ccc(/N=N/c2ccccc2)c(N)n1 [PHENAZOPYRIDINE] | Negative: based on the absence of positive reported data from WMDD
CC(=O)Oc1ccc(C(c2ccc(OC(C)=O)cc2)c2ccccn2)cc1 [BISACODYL] | Negative: based on the absence of positive reported data from WMDD
Clc1ccccc1CNC[C@H]1CC[C@H](CNCc2ccccc2Cl)CC1 | Positive: strong inducer confirmed by electron microscopy
CC(=O)Oc1ccc(C(=C2CCCCC2)c2ccc(OC(C)=O)cc2)cc1 [CYCLOFENIL] | Negative: based on the absence of positive reported data from WMDD
CC(=O)OCC(CCn1cnc2cnc(N)nc21)COC(C)=O [FAMCICLOVIR] | Negative: based on the absence of positive reported data from WMDD
COc1cc(Cc2cnc(N)nc2N)cc(OC)c1OC [TRIMETHOPRIM] | Negative: based on the absence of positive reported data from WMDD
